Data: patent publication US8846654B2, “Therapeutic applications in the cardiovascular field of quinazolinedione derivatives” (Sanofi, priority 2009, dated 2014)

System: PDE8
Assay: PDE8 enzymatic assay equivalent to that described for PDE7
Format: biochemical
Settings: not given
Text: 2) Measurement of the Inhibitory Activity of the Compounds in Accordance with the Invention with Regard to PDE8

Row | SMILES | IC50 [nM]
1 | COc1ccc(Cn2c(=O)c3cc(OC(CF)CF)ccc3n(C3CCN(C=O)CC3)c2=O)cc1OC [No. 11, 4-[3-(3,4-dimethoxybenzyl)-6-[2-fluoro-1-(fluoromethyl)ethoxy]-2,4-dioxo-3,4-dihydroquinazolin-1(2H)-yl]piperidine-1-carbaldehyde] | 140
2 | N#Cc1cc(Cn2c(=O)c3cc(OC(CF)CF)ccc3n(C3CCN(C=O)CC3)c2=O)ccc1-c1ccccc1 [No. 294, 4-({6-[2-fluoro-1-(fluoromethyl)ethoxy]-1-(1-formylpiperidin-4-yl)-2,4-dioxo-1,4-dihydroquinazolin-3(2H)-yl}methyl)biphenyl-2-carbonitrile] | 15

System: Male C57B6 mice
Assay: Murine model of myocardial infarction resulting from an ischemia-reperfusion episode
Format: in vivo
Settings: 3 mg/kg intravenously 5 minutes before reperfusion; 45 min coronary occlusion, 24 hours of reperfusion; compared with the vehicle
Method: 3) Evaluation of the Compounds in Accordance with the Invention in a Murine Model of Myocardial Infarction Resulting from an Ischemia-Reperfusion Episode
Male C57B6 mice (23-26 g) are anaesthetized (ketamine 1 g/kg+xylazine 0.02 g/kg, IP) and placed under respiratory assistance before being subjected to a thoracotomy targeted at exposing the heart. Cardiac ischemia is then induced by the transient ligation of the left coronary artery. After 45 minutes of coronary occlusion, the ligature is removed in order to make possible reperfusion of the region rendered ischemic. After closing the thorax and restoring the pleural cavity, the animals are placed in a revival cage.
Test compounds Nos 11, 56, 233 and 309 are administered 5 minutes before reperfusion intravenously at a dose of 3 mg/kg and compared with the vehicle (7.5% Cremophor RH40+22.5% glycofurol in a physiological serum solution).
After 24 hours of cardiac reperfusion, the animals are again anaesthetized (ketamine 1 g/kg+xylazine 0.02 g/kg, IP) before intravenously receiving sodium nitroprusside (1 mg/ml at 1 ml/min for 4 minutes) in order to dilate the coronary vasculature. The left coronary artery is religatured and a solution of Evans blue (3%, 200 to 300 μl) is injected by carotid retroperfusion in order to determine the region at ventricular risk. The heart is then removed and immersed in a saturated KCl solution in order to stop it in diastole. Transverse sections of 1 mm are produced, incubated in triphenyltetrazolium chloride (1% in PBS) at 37° C. for 2 minutes and then placed in formaldehyde (4%) overnight. The tetrazolium salt makes it possible to visualize the viable region within the region at risk. The surface area of the infarction with respect to the region at risk is determined by image analysis.

Row | SMILES | reduction of the size of the infarction, expressed with respect to the region at risk [%]
3 | COc1ccc(Cn2c(=O)c3cc(OC(CF)CF)ccc3n(C3CCN(C=O)CC3)c2=O)cc1OC [No. 11, 4-[3-(3,4-dimethoxybenzyl)-6-[2-fluoro-1-(fluoromethyl)ethoxy]-2,4-dioxo-3,4-dihydroquinazolin-1(2H)-yl]piperidine-1-carbaldehyde] | 43
4 | COc1cc(Cn2c(=O)c3cc(OC(CF)CF)ccc3n(C3CCN(C=O)CC3)c2=O)ccc1OC1CCCC1 [No. 56, 4-{3-[4-(cyclopentyloxy)-3-methoxybenzyl]-6-[2-fluoro-1-(fluoromethyl)ethoxy]-2,4-dioxo-3,4-dihydroquinazolin-1(2H)-yl}piperidine-1-carbaldehyde] | 33
5 | COc1ccc(Cn2c(=O)c3cc(OC(CF)CF)c(F)cc3n(C3CCN(C=O)CC3)c2=O)cc1OC [No. 233, 4-[3-(3,4-dimethoxybenzyl)-7-fluoro-6-[2-fluoro-1-(fluoromethyl)ethoxy]-2,4-dioxo-3,4-dihydroquinazolin-1(2H)-yl]piperidine-1-carbaldehyde] | 40
6 | COc1cc(Cn2c(=O)c3cc(OC(CF)CF)c(F)cc3n(C3CCN(C=O)CC3)c2=O)ccc1OCC1CC1 [No. 309, 4-{3-[4-(cyclopropylmethoxy)-3-methoxybenzyl]-7-fluoro-6-[2-fluoro-1-(fluoromethyl)ethoxy]-2,4-dioxo-3,4-dihydroquinazolin-1(2H)-yl}piperidine-1-carbaldehyde] | 32
